Source: patent US9695155B2, “Herbicidal substituted pyrimidinyloxy benzene compounds” (E. I. DU PONT DE NEMOURS AND COMPANY, priority 2013, dated 2017)

Key:
Italian ryegrass = assay: Test C preemergence; type: in vivo, Lolium multiflorum; conditions: for Ryegrass, Italian plant response rating: preemergence
In short: (§1)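 Seeds are planted in blended loam soil and sand and treated preemergence, while seedlings in a peat moss/vermiculite medium receive postemergence sprays at 2 to 18 cm height. All plants stay in the greenhouse for 13 to 15 days before visual comparison with controls on a 0–100 scale.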

barnyardgrass = assay: Test B flooded paddy test; type: in vivo, Echinochloa crus-galli; conditions: Flood, 250 g ai/ha; 0 to 100 scale where 0 is no effect and 100 is complete control
In short: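 Seedlings are raised to two leaves, flooded to a depth of 3 cm and dosed by adding the compound to the floodwater. Water level is kept constant, and plants are scored visually versus controls 13–15 days later (0 = no effect, 100 = complete control).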

ragweed [1] = assay: Test A postemergence; type: in vivo, Ambrosia elatior; conditions: 0 to 100 scale where 0 is no effect and 100 is complete control
In short: (§2)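 Injury scores run from 0, no effect, to 100, complete control, judged by eye against untreated plants roughly 10 days after treatment. Chemicals carried a surfactant in a non-phytotoxic solvent and went onto loam–sand soil preemergence or onto one- to two-leaf seedlings postemergence.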

wheat, winter = assay: Test C postemergence; type: in vivo, Triticum aestivum; conditions: for Plant response rating, Wheat: Postemergence, scale 0 to 100 (0 no effect, 100 complete control)
In short: as §1

pigweed = assay: Test A preemergence; type: in vivo, Amaranthus retroflexus
In short: as §2

giant foxtail = assay: Test A preemergence; type: in vivo, Setaria faberii
In short: as §2

chickweed = assay: Test C postemergence; type: in vivo, Stellaria media; conditions: for Plant response rating, Chickweed: Postemergence
In short: as §1

blackgrass = assay: Test A postemergence; type: in vivo, Alopecurus myosuroides; conditions: 0 to 100 scale where 0 is no effect and 100 is complete control
In short: as §2

ragweed [2] = assay: Test A preemergence; type: in vivo, Ambrosia elatior
In short: as §2

kochia = assay: Test C postemergence; type: in vivo, Kochia scoparia; conditions: for Plant response rating, Kochia: Postemergence
In short: as §1

wild oat = assay: Test C postemergence; type: in vivo, Avena fatua; conditions: for Plant response rating, Oat, Wild: Postemergence, scale 0 to 100 (0 no effect, 100 complete control)
In short: as §1

wheat = assay: Test A postemergence; type: in vivo, Triticum aestivum; conditions: 0 to 100 scale where 0 is no effect and 100 is complete control
In short: as §2

large (Lg) crabgrass = assay: Test C preemergence; type: in vivo, Digitaria sanguinalis; conditions: for Crabgrass, Large plant response rating: preemergence
In short: as §1

[3] = 16 g ai/ha, scale 0 to 100 (0 no effect, 100 complete control)
[4] = 62 g ai/ha, scale 0 (no effect) to 100 (complete control)
[5] = 125 g ai/ha, scale 0 (no effect) to 100 (complete control)
[6] = Preemergence, 31 g ai/ha, scale 0 to 100, 0 no effect, 100 complete control
[7] = 125 g ai/ha, 0 to 100 scale where 0 is no effect and 100 is complete control
[8] = 500 g ai/ha, 0 to 100 scale, 0 no effect, 100 complete control, approx. 10 days
[9] = 16 g ai/ha, postemergence, visual rating, scale 0 to 100 (0 no effect, 100 complete control), 13 to 15 days
[10] = 31 g ai/ha, scale 0 to 100 (0 no effect, 100 complete control), 13 to 15 days
[11] = 62 g ai/ha, scale 0 to 100 (0 no effect, 100 complete control)

Cc1cnc(Oc2cccc(C#N)c2-n2cc(C#N)cn2)nc1 [Compound 90]
Ryegrass, Italian plant response rating (Italian ryegrass; [3]): 0
Ryegrass, Italian plant response rating (Italian ryegrass; [4]): 0
Ryegrass, Italian plant response rating (Italian ryegrass; [5]): 50
Plant response rating, Ryegrass, Italian (Italian ryegrass; [6]): 0
Plant response rating, Barnyardgrass (barnyardgrass): 0
Plant response rating, Ragweed (ragweed [1]; 125 g ai/ha): 60
Plant response rating, Ragweed (ragweed [1]; 500 g ai/ha): 80
Plant response rating (0 to 100), Wheat (wheat, winter; 125 g ai/ha, postemergence): 0
Plant response rating, Wheat (wheat, winter; 31 g ai/ha, 13 to 15 days): 0
Plant response rating, Wheat (wheat, winter; 62 g ai/ha): 0
Plant response rating, Pigweed (pigweed; [7]): 100
Pigweed plant response rating (pigweed; [8]): 100
Plant response rating, Foxtail, Giant (giant foxtail; [7]): 90
Foxtail, Giant plant response rating (giant foxtail; [8]): 100
Chickweed plant response rating (chickweed; [9]): 5
Plant response rating (0 to 100), Chickweed (chickweed; 125 g ai/ha, postemergence): 50
Plant response rating, Chickweed (chickweed; [10]): 30
Plant response rating, Chickweed (chickweed; [11]): 15
Plant response rating, Blackgrass (blackgrass; 125 g ai/ha): 50
Plant response rating, Blackgrass (blackgrass; 500 g ai/ha): 70
Plant response rating, Ragweed (ragweed [2]; [7]): 50
Ragweed plant response rating (ragweed [2]; [8]): 80
Kochia plant response rating (kochia; [9]): 45
Plant response rating (0 to 100), Kochia (kochia; 125 g ai/ha, postemergence): 90
Plant response rating, Kochia (kochia; [10]): 70
Plant response rating, Kochia (kochia; [11]): 45
Plant response rating (0 to 100), Oat, Wild (wild oat; 125 g ai/ha, postemergence): 5
Plant response rating, Oat, Wild (wild oat; 31 g ai/ha, 13 to 15 days): 0
Plant response rating, Oat, Wild (wild oat; 62 g ai/ha): 5
Plant response rating, Wheat (wheat; 125 g ai/ha): 0
Plant response rating, Wheat (wheat; 500 g ai/ha): 50
Crabgrass, Large plant response rating (large (Lg) crabgrass; [3]): 25
Crabgrass, Large plant response rating (large (Lg) crabgrass; [4]): 98
Crabgrass, Large plant response rating (large (Lg) crabgrass; [5]): 100
Plant response rating, Crabgrass, Large (large (Lg) crabgrass; [6]): 98
